This note sets out measurements from patent publication US12459951B2, “Compounds that interact with RAS superfamily proteins for treatment of cancers, inflammatory diseases, rasopathies, and fibrotic disease” (SHY Therapeutics, LLC, priority 2022, dated 2025).

For orientation: IC50 means the concentration needed to halve the response being measured.

SMILES strings stand for the structures. pIC50: −log10 of the molar value. Like-named read-outs stand apart in the source and are kept apart here.

In assay [1] the test system is Smad2/Smad3 phosphorylation. Nature of the assay: Phospho-Smad2/3 Inhibition Assay (western blot), Panc-1. The format is cell-based, human. The following applies: at 10 μM, Panc-1 pancreatic cancer cell line; starred symbols = activation. The procedure, abridged:
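Western blotting of lysates (15-50 μg protein) read phosphorylation of Smad2 Ser465/467 and Smad3 Ser423/425. Before lysis, Panc-1 cells got 1 h of 10 ng/ml TGF-b1 following 3 h compound exposure at 37° C (10 μM final, or serial dilutions for IC50, 0.3% DMSO) after overnight 0.5% FBS starvation.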
A general note: Immunoblotting shows a protein as a band on a membrane.

Assay [2] has as its system TNF-alpha. Nature of the assay: TNF-alpha Quantification Assay (ELISA), LPS-stimulated RAW 264.7. The format is cell-based. The following applies: Mus musculus, RAW264.7; at 10 μM; read-out: TNFα: % inh. In general terms: In an ELISA, binding on a coated surface is turned into a signal by an enzyme label.
The test system of assay [3] is MiaPaca-2 (expressing KRAS G12C mutant). Kind of assay: Proliferation Assay (Cell Viability Assay). The format is cell-based. The following applies: Homo sapiens, MIA PaCa-2; for IC50: Proliferation assay, MiaPaca-2, read-out: MiaPaca-2 IC50 (nM) Pancreatic. The gist of the method: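 After 2–4 days' exposure at 37 °C, 5% CO2 to a single 10 μM final concentration or a dilution series (IC50), percent proliferation inhibition was derived from CellTiter 96 Aqueous One viability readings. The medium contained 0.3% DMSO and 10% FBS. KRAS G12C MiaPaca-2 cells were plated at 2000–5000/well the day before.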

Where [4] appears, read: read-out: Proliferation in MiaPaca-2: IC50.

Turning to `COc1cc(Nc2nc(-c3nccn3C)nn3cc(-c4ccn(C)n4)c(C)c23)ncn1` [Compound 63, N-(6-Methoxypyrimidin-4-yl)-5-methyl-2-(1-methyl-1H-imidazol-2-yl)-6-(1-methyl-1H-pyrazol-3-yl)pyrrolo[2,1-f][1,2,4]triazin-4-amine], the “% inh of Smad2/3 phosphorylation in Panc-1” value (shortened to “% inh”) in assay [1] is “D* (D* = 76-100% activation)”. Besides, the inhibition at 10 µM in assay [2] lay in the range of 1 to 24%. For the same compound, the pIC50 in assay [3] (setting [4]) is more than 6.82.

As for `CO[C@H]1CC[C@@H](Nc2nc(-c3nccn3C)nn3cc(-c4ccn(C(C)C)n4)c(C(C)C)c23)C1` (racemic) [Compound 36, rac 5-Isopropyl-6-(1-isopropyl-1H-pyrazol-3-yl)-N-((1R,3S)-3-methoxycyclopentyl)-2-(1-methyl-1H-imidazol-2-yl)pyrrolo[2,1-f][1,2,4]triazin-4-amine], in assay [1], the “% inh” value is “D (D = 76-100% inhibition)”. Moreover, the inhibition at 10 µM in assay [2] fell in the range of 1 to 24%. The pIC50 in assay [3] (setting [4]) is less than 6.00.

On to `COc1cncnc1Nc1nc(-c2nccn2C)nn2cc(-c3ccn(C(C)C)n3)c(C)c12` [Compound 73, 6-(1-Isopropyl-1H-pyrazol-3-yl)-N-(5-methoxypyrimidin-4-yl)-5-methyl-2-(1-methyl-1H-imidazol-2-yl)pyrrolo[2,1-f][1,2,4]triazin-4-amine], for which, in assay [1], the “% inh” value is reported as “B* (B* = 26-45% activation)”. The inhibition at 10 µM in assay [2] came out at 0%. The pIC50 in assay [3] (setting [4]) was more than 6.82.

Take `COc1cccc(Nc2nc(-c3nccn3C)nn3ccc(-c4ccccc4)c23)n1` [Compound 40, N-(6-Methoxypyridin-2-yl)-2-(1-methyl-1H-imidazol-2-yl)-5-phenylpyrrolo[2,1-f][1,2,4]triazin-4-amine]: the “% inh” value in assay [1] is reported as “B (B = 26-45% inhibition)”. Further, the inhibition at 10 µM in assay [2] was in the range of 25 to 49%. Besides, the pIC50 in assay [3] (setting [4]) is less than 6.00.

Turning to `COCCO[C@H]1C[C@H](Nc2nc(-c3nccn3C)nn3cc(-c4cccc(OC)c4F)c(-c4ccccc4)c23)C1` [Compound 44, 6-(2-Fluoro-3-methoxyphenyl)-N-((1r,3r)-3-(2-methoxyethoxy)cyclobutyl)-2-(1-methyl-1H-imidazol-2-yl)-5-phenylpyrrolo[2,1-f][1,2,4]triazin-4-amine], the “% inh” value in assay [1] was “D (D = 76-100% inhibition)”. For the same compound, the inhibition at 10 µM in assay [2] lay within 1 to 24%. Besides, the pIC50 in assay [3] (setting [4]) was less than 6.00.

On to `COc1cccc(-c2cn3nc(-c4nccn4C)nc(N[C@H]4C[C@H](OC)C4)c3c2-c2ccccn2)c1F` [Compound 45, 6-(2-Fluoro-3-methoxyphenyl)-N-((1r,3r)-3-methoxycyclobutyl)-2-(1-methyl-1H-imidazol-2-yl)-5-(pyridin-2-yl)pyrrolo[2,1-f][1,2,4]triazin-4-amine], for which the “% inh” value in assay [1] is 0 (0 = 0% inhibition). Moreover, the inhibition at 10 µM in assay [2] lay within 75 to 100%. Besides, the pIC50 in assay [3] (setting [4]) was less than 6.00.

With `COc1cnc(Nc2nc(-c3nccn3C)nn3cc(-c4ccn(C(C)C)n4)c(C)c23)nc1` [Compound 56, 6-(1-Isopropyl-1H-pyrazol-3-yl)-N-(5-methoxypyrimidin-2-yl)-5-methyl-2-(1-methyl-1H-imidazol-2-yl)pyrrolo[2,1-f][1,2,4]triazin-4-amine], in assay [1], the “% inh” value was “D* (D* = 76-100% activation)”. The inhibition at 10 µM in assay [2] is 1 to 24%. Besides, in assay [3] (setting [4]), the pIC50 is 6.30 to 6.82.

As to `COc1ccnc(Nc2nc(-c3nccn3C)nn3cc(-c4ccn(C(C)C)n4)c(C)c23)n1` [Compound 53, 6-(1-Isopropyl-1H-pyrazol-3-yl)-N-(4-methoxypyrimidin-2-yl)-5-methyl-2-(1-methyl-1H-imidazol-2-yl)pyrrolo[2,1-f][1,2,4]triazin-4-amine], the “% inh” value in assay [1] is recorded as “B (B = 26-45% inhibition)”. Also, the inhibition at 10 µM in assay [2] was in the range of 1 to 24%. In assay [3] (setting [4]), the pIC50 was more than 6.82.

`Cc1[nH]nc(Nc2nc(-c3nccn3C)nn3cc(-c4ccn(C)n4)c(C)c23)c1C` [Compound 267, N-(4,5-Dimethyl-1H-pyrazol-3-yl)-5-methyl-2-(1-methyl-1H-imidazol-2-yl)-6-(1-methyl-1H-pyrazol-3-yl)pyrrolo[2,1-f][1,2,4]triazin-4-amine]: the “% inh” value in assay [1] was “B (B = 26-45% inhibition)”. Moreover, the inhibition at 10 µM in assay [2] is 1 to 24%. In addition, the half-maximal inhibitory concentration (IC50) in assay [3] fell in the range of 1 to 10 nM. Besides, the pIC50 in assay [3] (setting [4]) was more than 6.82.

`Cc1c(-c2ccn(C)n2)cn2nc(-c3nccn3C)nc(Nc3cc(C(C)C)[nH]n3)c12` [Compound 268, N-(5-Isopropyl-1H-pyrazol-3-yl)-5-methyl-2-(1-methyl-1H-imidazol-2-yl)-6-(1-methyl-1H-pyrazol-3-yl)pyrrolo[2,1-f][1,2,4]triazin-4-amine]: the “% inh” value in assay [1] is recorded as “C (C = 46-75% inhibition)”. Also, the inhibition at 10 µM in assay [2] fell in the range of 25 to 49%. In addition, the pIC50 in assay [3] (setting [4]) is more than 6.82.

`COc1ccnc(Nc2nc(-c3nccn3C)nn3cc(-c4ccn(C(C)C)n4)c(C)c23)c1` [Compound 58, 6-(1-Isopropyl-1H-pyrazol-3-yl)-N-(4-methoxypyridin-2-yl)-5-methyl-2-(1-methyl-1H-imidazol-2-yl)pyrrolo[2,1-f][1,2,4]triazin-4-amine]: in assay [1], the “% inh” value is given as “C (C = 46-75% inhibition)”. In addition, in assay [2], the inhibition at 10 µM was in the range of 1 to 24%. In addition, the pIC50 in assay [3] (MiaPaca2, pancreatic, KRas G12C, read-out: Proliferation assay IC50) was more than 6.82; in assay [3] (setting [4]) it was more than 6.82. Further, in assay [3], the half-maximal inhibitory concentration (IC50) lay within 1 to 10 nM.

For `Cc1c(-c2ccn(C)n2)cn2nc(-c3nccn3C)nc(Nc3cc(-c4ccccc4)[nH]n3)c12` [Compound 263, 5-Methyl-2-(1-methyl-1H-imidazol-2-yl)-6-(1-methyl-1H-pyrazol-3-yl)-N-(5-phenyl-1H-pyrazol-3-yl)pyrrolo[2,1-f][1,2,4]triazin-4-amine], the “% inh” value in assay [1] was “C (C = 46-75% inhibition)”. Further, the inhibition at 10 µM in assay [2] was in the range of 50 to 74%. Moreover, in assay [3] (setting [4]), the pIC50 is more than 6.82.

Consider `Cc1c(-c2ccn(C(C)C)n2)cn2nc(-c3nccn3C)nc(Nc3ncco3)c12` [Compound 60, N-(6-(1-Isopropyl-1H-pyrazol-3-yl)-5-methyl-2-(1-methyl-1H-imidazol-2-yl)pyrrolo[2,1-f][1,2,4]triazin-4-yl)oxazol-2-amine], for which the “% inh” value in assay [1] was “C (C = 46-75% inhibition)”. For the same compound, the inhibition at 10 µM in assay [2] came to 0%. For the same compound, the pIC50 in assay [3] (setting [4]) was less than 6.00.

Consider `COc1cc(Nc2nc(-c3nccn3C)nn3cc(-c4ccn(C)n4)c(C)c23)nn1C` [Compound 253, N-(5-Methoxy-1-methyl-1H-pyrazol-3-yl)-5-methyl-2-(1-methyl-1H-imidazol-2-yl)-6-(1-methyl-1H-pyrazol-3-yl)pyrrolo[2,1-f][1,2,4]triazin-4-amine], for which the “% inh” value in assay [1] was “A* (A* = 1-25% activation)”. Also, the inhibition at 10 µM in assay [2] was 0%. Besides, the pIC50 in assay [3] (setting [4]) is 6.00 to 6.29.

For `COc1ccc(F)c(-c2cn3nc(-c4nccn4C)nc(N[C@H]4C[C@H](OC)C4)c3c2-c2ccccc2)c1F` [Compound 273, 6-(2,6-Difluoro-3-methoxyphenyl)-N-((1r,3r)-3-methoxycyclobutyl)-2-(1-methyl-1H-imidazol-2-yl)-5-phenylpyrrolo[2,1-f][1,2,4]triazin-4-amine], the “% inh” value in assay [1] is “D (D = 76-100% inhibition)”. In addition, in assay [2], the inhibition at 10 µM fell in the range of 75 to 100%. The pIC50 in assay [3] (setting [4]) is less than 6.00.

Consider `Cc1c(-c2ccn(C(C)C)n2)cn2nc(-c3nccn3C)nc(Nc3ccncn3)c12` [Compound 55, 6-(1-Isopropyl-1H-pyrazol-3-yl)-5-methyl-2-(1-methyl-1H-imidazol-2-yl)-N-(pyrimidin-4-yl)pyrrolo[2,1-f][1,2,4]triazin-4-amine], for which the “% inh” value in assay [1] is given as “D (D = 76-100% inhibition)”. Moreover, in assay [2], the inhibition at 10 µM lay within 1 to 24%. Also, the pIC50 in assay [3] (setting [4]) was more than 6.82.

As to `COc1ccnc(Nc2nc(-c3nccn3C)nn3cc(-c4ccn(C)n4)c(C4CC4)c23)c1` [Compound 276, 5-Cyclopropyl-N-(4-methoxypyridin-2-yl)-2-(1-methyl-1H-imidazol-2-yl)-6-(1-methyl-1H-pyrazol-3-yl)pyrrolo[2,1-f][1,2,4]triazin-4-amine], in assay [1], the “% inh” value is “B (B = 26-45% inhibition)”. In addition, the inhibition at 10 µM in assay [2] is 0%. Further, in assay [3] (setting [4]), the pIC50 is 6.30 to 6.82.

As to `COc1cccc(Nc2nc(-c3nccn3C)nn3ccc(C)c23)n1` [Compound 38, N-(6-Methoxypyridin-2-yl)-5-methyl-2-(1-methyl-1H-imidazol-2-yl)pyrrolo[2,1-f][1,2,4]triazin-4-amine], the “% inh” value in assay [1] is given as 0 (0 = 0% inhibition). Further, the inhibition at 10 µM in assay [2] was 1 to 24%. The pIC50 in assay [3] (setting [4]) was less than 6.00.

Consider `Cc1c(-c2ccn(C)n2)cn2nc(-c3nccn3C)nc(N3CCc4cc(C(F)(F)F)cnc43)c12` [Compound 251, 5-Methyl-2-(1-methyl-1H-imidazol-2-yl)-6-(1-methyl-1H-pyrazol-3-yl)-4-(5-(trifluoromethyl)-2,3-dihydro-1H-pyrrolo[2,3-b]pyridin-1-yl)pyrrolo[2,1-f][1,2,4]triazine], for which, in assay [1], the “% inh” value is “A* (A* = 1-25% activation)”. For the same compound, the pIC50 in assay [3] (setting [4]) is less than 6.00.
